Consider 3 compounds from PubChem BioAssay (NCI).

What all share (assay): NCI-60 cell line screen, 48 h
The subject of experiment [1] is SN12C renal.
In experiment [2] the test system is SW-620 colon.
Experiment [3] deals with HOP-92 NSCLC.
The test system of experiment [4] is A549 NSCLC.
In experiment [5] the test system is OVCAR-8 ovarian.
Experiment [6] has as its system SK-MEL-5 melanoma.
For experiment [7], the system named is CAKI-1 renal.

The structures appear in SMILES notation.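 1) Cells in 96-well plates. 2) Compound, 48 h, 5 concentrations. 3) Linear interpolation between surrounding doses. 4) Unreached endpoint = highest concentration. At the TGI there is no net growth.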

Regarding `CCOC(=O)C1=C(c2ccccc2)C12N(Cc1ccccc1)C(=O)C2(c1ccccc1)c1ccccc1` (configuration not stated), the TGI in experiment [1] is more than 100 µM; in experiment [2], more than 100 µM; in experiment [3] it was 87.5 µM.
Regarding `O=C1c2cc3c(cc2CC1Cc1ccc2c(c1)CCC2)CCC3` (configuration not stated), the TGI in experiment [4], in experiment [5], in experiment [1], in experiment [6] and in experiment [2] was more than 100 µM in each case.
Regarding `N#Cc1ccc(C2Oc3ccc(Cl)cc3C=C2[N+](=O)[O-])cc1` (configuration not stated), the TGI came out at 3.3 µM in experiment [4], 2.96 µM in experiment [7], 2.68 µM in experiment [6] and 2.83 µM in experiment [3].
